Data: US4456752A, “Process for the preparation of 9-hydrazono-6,7,8,9-tetrahydro-4H-pyro[1,2-a]pyrimidine-4-one compounds, the salts and hydrates thereof” (Chinoin Gyogyszer es Vegyeszeti Termekek Gyara R.T., priority 1979, dated 1984)

Legend:
[1] = test system: allergic reactions induced by the antigen-antibody interaction; test: PCA test (Ovary), antiallergic activity on rats; type: in vivo; settings: for ED50: Rattus norvegicus, iv, rats
Description: The test is carried out by the PCA test-method (Ovary: J. Immun. 81, 355, 1958) and the Church-test (British J. Pharm. 46, 56-66, 1972; Immunology 29, 527-534, 1975) and as a reference substance disodium chromoglycate is used. The test was carried out on rats.

[2] = test system: allergic symptoms; settings: oral / inhaler; background statement; cited from earlier work

SMILES | ED50 [1] [µmol/kg] | oral activity (PCA test data, in words) ([1]; oral versus i.v.) | effectiveness by route (antiasthmatic agent, in words) [2]
CCOc1ccc(NN=C2CCC(C)n3c2ncc(C(=O)O)c3=O)cc1 (racemic) [(±)-9-(4-ethoxyphenyl-hydrazono)-6-methyl-4-oxo-6,7,8,9-tetrahydro-4H--pyrido[1,2-a]pyrimidine-3-carboxylic acid] | 0.87 |  | 
Cc1cccc(NN=C2CCC(C)n3c2ncc(C(=O)O)c3=O)c1 (centres unmarked) [6-methyl-9-(3-methylphenyl-hydrazono)-4-oxo-6,7,8,9-tetrahydro-4H--pyrido[1,2-a]-pyrimidine-3-carboxylic acid] | 0.42 |  | 
CC1CCC(=NNc2cccc([N+](=O)[O-])c2)c2ncc(C(=O)O)c(=O)n21 (centres unmarked) [6-methyl-9-(3-nitrophenyl-hydrazono-4-oxo-6,7,8,9-tetrahydro-4H--pyrido[1,2-a]-pyrimidine-3-carboxylic acid] | 0.52 |  | 
CC1CCC(=NNc2cccc(Cl)c2)c2ncc(C(=O)O)c(=O)n21 (centres unmarked) [9-(3-chlorophenylhydrazono)-6-methyl-4-oxo-6,7,8,9-tetrahydro-4H--pyrido[1,2-a]-pyrimidine-3-carboxylic acid] | 0.61 |  | 
CC1CCC(=NNc2ccc(Br)cc2)c2ncc(C(=O)O)c(=O)n21 (centres unmarked) [9-(4-bromophenylhydrazono)-6-methyl-4-oxo-6,7,8,9-tetrahydro-4H--pyrido[1,2-a]-pyrimidine-3-carboxylic acid] | 0.82 |  | 
CC1CCC(=NNc2ccc(C(=O)O)cc2)c2ncc(C(=O)O)c(=O)n21 (centres unmarked) [9-(4-carboxyphenyl-hydrazono)-6-methyl-4-oxo-6,7,8,9-tetrahydro-4H--pyrido[1,2-a]pyrimidine-3-carboxylic acid] | 7.6 |  | 
O=C(O)c1cc(=O)c2c(OCC(O)COc3cccc4oc(C(=O)O)cc(=O)c34)cccc2o1 [Disodium chromoglycate, 1,3-bis-(2-carboxychromon-6-yl-ox)-2-hydroxypropane, reference compound] |  | effective only when administered intravenously | not effective orally and it produces the desired effect only by using an inhaler
